Bridge positions count the residues as written; N and C are the ends. Square brackets hold non-standard residues; d marks the D form. Peptide text beside a SMILES is read from it. * marks the point of attachment. Isonicotinoyl(2-Ph) = O=C(c1ccnc(-c2ccccc2)c1)*; Benzoyl(3-Ph) = O=C(c1cccc(-c2ccccc2)c1)*; X19 = N#Cc1ccc(-c2cccc(C(=O)*)c2)nc1; X25 = O=C(c1ccc(Cl)c(-c2ccccn2)c1)*; X6 = O=C(c1cccc(-c2ccc(F)cc2)c1)*; X27 = O=C(c1cncc(-c2ccccc2)c1)*; dDap = NC[C@@H](N)C(=O)O; Dab = NCC[C@H](N)C(=O)O; Dap = NC[C@H](N)C(=O)O
Legend:
[1] = tested on: PA-1646, polymyxin-resistant clinical isolate of Pseudomonas aeruginosa; format: cell-based; conditions: PA-1646, polymyxin-resistant clinical isolate of
Procedure, shortened: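 Broth dilution MIC and bactericidal (MBC) testing per CLSI methods (M7-A8, M100-S20, M26-A) against polymyxin-resistant clinical P. aeruginosa isolate PA-1646. Compounds tested as trifluoroacetate salts, one as sulfate salt; values in mg/L.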

[2] = tested on: AB-1649, polymyxin-resistant clinical isolate of Acinetobacter baumannii; format: cell-based; conditions: AB-1649, polymyxin-resistant clinical isolate of
Procedure, shortened: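 Broth dilution MIC per CLSI against the polymyxin-resistant A. baumannii isolate, 2-fold dilutions, overnight incubation, visual read of lowest concentration inhibiting growth. Run in duplicate, lower value reported when within 2-fold; MBC per CLSI M26-A guideline.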

[3] = tested on: AB-3167, clinical isolate of Acinetobacter baumannii; format: cell-based; conditions: AB-3167, clinical isolate of
Procedure, shortened: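 Broth dilution MIC per CLSI (M7-A8, M100-S20, M26-A for bactericidal), 2-fold dilution series, overnight incubation, visual read of lowest concentration inhibiting growth versus drug-free control. Duplicates run; lower value reported if within 2-fold, otherwise repeated. Compounds tested as trifluoroacetate salts; QC strains and reference compounds required in range.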

[4] = tested on: PA-1646, polymyxin-resistant clinical isolate of Pseudomonas aeruginosa; format: cell-based; conditions: PA-1646, polymyxin-resistant clinical isolate of; remark: listed apart in the source
Procedure, shortened: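 Broth dilution MIC per CLSI with 2-fold concentration steps, read visually after overnight incubation as lowest concentration inhibiting growth; duplicates within 2-fold, lower value reported, with QC strains and reference compounds. Compounds tested as trifluoroacetate salts, polymyxin B as sulfate.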

[5] = tested on: Pseudomonas aeruginosa strain PA01; format: cell-based; conditions: strain
Procedure, shortened: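 CLSI broth dilution against P. aeruginosa PA01 with two-fold concentration steps and overnight incubation; MIC is lowest concentration visibly inhibiting growth versus drug-free control, in mg/L. Compounds tested as trifluoroacetate salts, in duplicate, lower value reported if within 2-fold; control organisms and reference compounds included.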

[6] = tested on: AB-1649, polymyxin-resistant clinical isolate of Acinetobacter baumannii; format: cell-based; conditions: AB-1649, polymyxin-resistant clinical isolate of; remark: listed apart in the source
Procedure, shortened: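 MIC and MBC were measured by CLSI broth dilution methods (M7-A8, M100-S20, M26-A) against a polymyxin-resistant clinical isolate and reported in mg/L. Compounds were tested as trifluoroacetate salts, with one exception tested as the sulfate.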

[7] = tested on: KP-5016, ESBL+ clinical isolate of Klebsiella pneumoniae (SHV-5); assay: Minimum inhibitory concentration (MIC, CLSI), KP-5016; format: cell-based; conditions: K. pneumoniae KP-5016; overnight incubation, lower of duplicate values; trifluoroacetate salt (Example 1 and PMB sulfate)
Description: (§1) Minimum bactericidal concentration (MBC, mg/L), minimum inhibitory concentration (MIC, mg/L), and human renal proximal tubule epithelial cell line cytotoxicity concentration 50% (hRPTEC, TC50, micromolar) for compounds of Formula I are listed in Table 2. The compounds of Formula I were tested as the corresponding trifluoroacetate salt except for Example 1 which was tested as the sulfate salt. For Table 2 below: PMB=polymyxin B as the sulfate salt (Bedford Laboratories, pharmaceutical grade); PMB1=polymyxin B1 as the trifluoroacetate salt; Nona=polymyxin B nonapeptide as the trifluoroacetate salt. PMB1 and Nona were prepared using the solid phase methodology described in the experimental section herein.
(§2) The in vitro antibacterial activity of compounds of Formula I was evaluated by MIC testing according to Clinical and Laboratory Standards Institute (CLSI). See: Clinical and Laboratory Standards Institute. Methods for Dilution Antimicrobial Susceptibility Tests for Bacteria that Grow Aerobically; Approved Standard-Eighth Edition. CLSI document M7-A8 [ISBN 1-56238-689-1]. Clinical and Laboratory Standards Institute, 940 West Valley Road, Suite 1400, Wayne, Pa. 19087-1898 USA, 2006; also Clinical and Laboratory Standards Institute. Performance Standards for Antimicrobial Susceptibility Testing; Twentieth Informational Supplement. CLSI document M100-S20 [ISBN 1-56238-716-2]. Clinical and Laboratory Standards Institute. Methods for Determining Bactericidal Activity of Antimicrobial Agents; Approved Guideline. CLSI document M26-A (ISBN 1-56238-384-1). CLSI, 940 West Valley Road, Suite 1400, Wayne, Pa. 19087-1898 USA, 1999.
(§3) The MIC determination is a standard laboratory method for evaluating the antibacterial activity of a compound. The MIC represents the lowest drug concentration that inhibits visible growth of bacteria following overnight incubation. […] Typically, the drug concentration range is broken down into 2-fold increments (e.g. 0.06 mg/L, 0.12 mg/L, 0.25 mg/L, 0.50 mg/L, 1.0 mg/L, etc.) and the various drug concentrations are all individually incubated overnight with approximately the same number of bacteria. The MIC is then determined by visually inspecting the drug effect at each concentration, and identifying the lowest drug concentration that has inhibited bacterial growth as compared to the drug free control. Typically, bacteria continue to grow at drug concentrations lower than the MIC and don't grow at concentrations at and above the MIC.
(§4) The MIC values described in Table 2 below were derived from assays wherein each test compound was evaluated in duplicate. In cases where the duplicate values varied by 0-2-fold, the lower of the two values was reported below. Generally speaking, if the duplicate values varied by more than 2-fold, the assay was considered non-valid and was repeated until the variation between duplicate runs was ≦2-fold. In line with the CLSI guidelines referred to above, both control organisms and reference compounds were utilized in each MIC assay to provide proper quality control. MIC values generated with these control organisms and reference compounds were required to fall within a defined range for the assay to be considered valid and be included herein. Those skilled in the art will recognize that MIC values can and do vary from experiment to experiment. Generally speaking, it should be recognized that MIC values often vary +/−2-fold from experiment to experiment. While a single MIC is reported for each compound and each microorganism, the reader should not conclude that each compound was only tested once. Several of the compounds were subjected to multiple tests. The data reported in Table 2 is reflective of the compounds relative activity and different MICs may have been generated on these occasions in line with the guidelines described above.
The following bacterial strains were used in these MIC determinations: […]

[8] = tested on: KP-3700, ESBL+ clinical isolate of Klebsiella pneumoniae; assay: Minimum inhibitory concentration (MIC, CLSI), KP-3700; format: cell-based; conditions: K. pneumoniae KP-3700; overnight incubation, lower of duplicate values; trifluoroacetate salt (Example 1 and PMB sulfate)
Description: as §1, §2, §3, §4
The following bacterial strains were used in these MIC determinations:
KP-3700 is an ESBL+clinical isolate of Klebsiella pneumoniae obtained in 2006; and […]

[9] = tested on: EC-1, mouse virulent strain of Escherichia coli; format: cell-based; conditions: E. coli EC-1; overnight incubation, lower of duplicate values; trifluoroacetate salt (Example 1 and PMB sulfate)
Procedure, shortened: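 Compounds were tested mostly as trifluoroacetate salts. Duplicate CLSI broth-dilution MICs were read visually after overnight incubation over 2-fold dilutions, with the lower of duplicates within 2-fold taken. QC organisms and reference drugs were included in each run.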

[10] = Cytotoxicity assay (LDH release), hRPTEC; format: cell-based, human; conditions: human
Procedure, shortened: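 hRPTEC grown 72 h in REGM, then exposed to compounds at 100, 67, 44, 30, 20 and 13 micromolar for 24 h at 37° C, 5% CO2. LDH released into supernatant measured; TC50 (micromolar) derived. Compounds tested as trifluoroacetate salts unless otherwise noted.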

Row | SMILES | PA-1646 MBC [1] [µg/mL] | AB-1649 MIC [2] [µg/mL] | AB-3167 MIC [3] [µg/mL] | PA-1646 MIC [4] [µg/mL] | PA01 MIC [5] [µg/mL] | AB-1649 MBC [6] [µg/mL] | KP-5016 MIC [7] [µg/mL] | KP-3700 MIC [8] [µg/mL] | EC-1 MIC [9] [µg/mL] | CC50 at 24 h [10] [µM]
1 | CC(C)C[C@@H]1NC(=O)[C@@H](Cc2ccccc2)NC(=O)[C@H](CCN)NC(=O)[C@@H](NC(=O)[C@@H](CN)NC(=O)[C@@H](NC(=O)[C@H](CCN)NC(=O)c2ccnc(-c3ccccc3)c2)[C@@H](C)O)CCNC(=O)[C@H]([C@@H](C)O)NC(=O)[C@H](CCN)NC(=O)[C@H](CCN)NC1=O [Example 47] ({Isonicotinoyl(2-Ph)}-[Dab]T[dDap][Dab][Dab][dF]L[Dab][Dab]T; lactam 4-C) | 2 | 4 | 0.5 | 1 | 0.5 | 4 | 8 | 0.25 | 0.25 | 100
2 | CC(C)C[C@@H]1NC(=O)[C@@H](Cc2ccccc2)NC(=O)[C@H](CCN)NC(=O)[C@@H](NC(=O)[C@H](CN)NC(=O)[C@@H](NC(=O)[C@H](CCN)NC(=O)c2ccc(Cl)c(-c3ccccn3)c2)[C@@H](C)O)CCNC(=O)[C@H]([C@@H](C)O)NC(=O)[C@H](CCN)NC(=O)[C@H](CCN)NC1=O [Example 28] (X25-[Dab]T[Dap][Dab][Dab][dF]L[Dab][Dab]T; lactam 4-C) | 16 | 4 | 0.25 | 4 | 1 | 4 | – | – | 0.25 | 72
3 | CC(C)C[C@@H]1NC(=O)[C@@H](Cc2ccccc2)NC(=O)[C@H](CCN)NC(=O)[C@@H](NC(=O)[C@H](CN)NC(=O)[C@@H](NC(=O)[C@H](CCN)NC(=O)c2cccc(-c3ccc(F)cc3)c2)[C@@H](C)O)CCNC(=O)[C@H]([C@@H](C)O)NC(=O)[C@H](CCN)NC(=O)[C@H](CCN)NC1=O [Example 20] (X6-[Dab]T[Dap][Dab][Dab][dF]L[Dab][Dab]T; lactam 4-C) | 1 | 2 | 0.25 | 1 | 0.5 | 2 | – | – | 0.25 | 18
4 | CC(C)C[C@@H]1NC(=O)[C@@H](Cc2ccccc2)NC(=O)[C@H](CCN)NC(=O)[C@@H](NC(=O)[C@H](CN)NC(=O)[C@@H](NC(=O)[C@H](CCN)NC(=O)c2cccc(-c3ccc(C#N)cn3)c2)[C@@H](C)O)CCNC(=O)[C@H]([C@@H](C)O)NC(=O)[C@H](CCN)NC(=O)[C@H](CCN)NC1=O [Example 26] (X19-[Dab]T[Dap][Dab][Dab][dF]L[Dab][Dab]T; lactam 4-C) | 8 | 4 | 1 | 4 | 1 | 4 | – | – | 0.25 | 77
5 | CC(C)C[C@@H]1NC(=O)[C@@H](Cc2ccccc2)NC(=O)[C@H](CCN)NC(=O)[C@@H](NC(=O)[C@H](CN)NC(=O)[C@@H](NC(=O)[C@H](CCN)NC(=O)c2cccc(-c3ccccc3)c2)[C@@H](C)O)CCNC(=O)[C@H]([C@@H](C)O)NC(=O)[C@H](CCN)NC(=O)[C@H](CCN)NC1=O [Example 19] ({Benzoyl(3-Ph)}-[Dab]T[Dap][Dab][Dab][dF]L[Dab][Dab]T; lactam 4-C) | 2 | 2 | 0.25 | 1 | 0.5 | 2 | – | – | 0.25 | 21
6 | CC(C)C[C@@H]1NC(=O)[C@@H](Cc2ccccc2)NC(=O)[C@H](CCN)NC(=O)[C@@H](NC(=O)[C@H](CN)NC(=O)[C@@H](NC(=O)[C@H](CCN)NC(=O)c2cncc(-c3ccccc3)c2)[C@@H](C)O)CCNC(=O)[C@H]([C@@H](C)O)NC(=O)[C@H](CCN)NC(=O)[C@H](CCN)NC1=O [Example 30] (X27-[Dab]T[Dap][Dab][Dab][dF]L[Dab][Dab]T; lactam 4-C) | 4 | 4 | 0.25 | 2 | 0.5 | 4 | – | – | 0.125 | 56
7 | CC(C)C[C@@H]1NC(=O)[C@@H](Cc2ccccc2)NC(=O)[C@H](CCN)NC(=O)[C@@H](NC(=O)[C@H](CN)NC(=O)[C@H](CO)NC(=O)[C@H](CCN)NC(=O)c2ccnc(-c3ccccc3)c2)CCNC(=O)[C@H]([C@@H](C)O)NC(=O)[C@H](CCN)NC(=O)[C@H](CCN)NC1=O [Example 46] ({Isonicotinoyl(2-Ph)}-[Dab]S[Dap][Dab][Dab][dF]L[Dab][Dab]T; lactam 4-C) | – | 4 | 1 | 64 | 0.5 | – | 64 | 0.5 | 0.25 | 98
